Article PMC8424644, “Thermodynamic Stability and Speciation of Ga(III) and Zr(IV) Complexes with High-Denticity Hydroxamate Chelators” (Inorganic Chemistry, 2021)
Marks after values point to notes of the source that are not given here.

How the values were obtained:
[1] = Ligand protonation constants, potentiometric titrations; assay type: physicochemical
From the text: The metal affinity of a ligand depends on its acid-base properties; therefore, the protonation equilibria of […] and […] were first investigated. The proton-dissociation processes of the ligands were followed by potentiometric titrations in the pH range 2-11. The hydrolytic stability of the ligands was monitored by a second titration of the same sample with NaOH, following back-acidification of the initially titrated sample. […] As was previously reported in the example of α- and β-alanine hydroxamic acids, the amino group may be more acidic than the hydroxamic group, or vice versa. […] However, such a precise analysis is not needed for the determination of the stability of […]-metal complexes and therefore was not performed. […] The potentiometric titrations of ligands and their complexes were carried out using a Titrando 905 (Metrohm) automatic titrator system, equipped with a combined glass electrode (Mettler Toledo, InLab Semi-Micro, with […] Polymer filling) and a 800 Dosino dosing system, equipped with a a 2 mL micro buret. The ionic strength was fixed at I = 0.1 M with NaClO4. The electrode was calibrated daily in terms of hydrogen ion concentration using HClO4 (0.1 M) with CO2-free NaOH solutions (0.1 M).[76] A stream of high-purity argon, presaturated with water vapor, was passed over the surface of the solution cell, the cell was filled with 50 mL of the studied solution, and the system was thermostated at 25.0 ± 0.2 °C. At least three titrations were performed for each system, with a starting concentration of the ligand of 1 mM and a 1:1 metal to ligand molar ratio with a 10% excess of the ligand in the pH range 2-11. The purity and exact concentration of the ligand solutions were determined using the Gran method.[77] Special care was taken to ensure that complete equilibration was attained. […] The potentiometric data were refined with the […][78] and […][79] programs, which use nonlinear least-squares methods.

[2] = Fe(III)-L + Zr(IV)-NTA metal–metal competition UV–vis titrations; assay type: physicochemical; conditions: log β[ZrL2] vs log β[ZrL1]
[3] = potentiometric titrations, 25 °C, I = 0.1 M NaClO4

| Structure (SMILES) | log K LH2 (ligand protonation) [1, 3] | log K LH3 (ligand protonation) [1, 3] | log K LH (ligand protonation) [1, 3] | log β LH2 (ligand protonation) [1, 3] | log β LH3 (ligand protonation) [1, 3] | log β LH (ligand protonation) [1, 3] | protonation constant of the amino group (log K) ([1]; not detectable in the experimental pH range 2–11, assumed on the basis of DFOB) | log K LH4 (ligand protonation) [1, 3] | log β LH4 (ligand protonation) [1, 3] | increase in log β of the Zr(IV) complex with respect to Zr(IV)-H3L1 [2] |
| --- | --- | --- | --- | --- | --- | --- | --- | --- | --- | --- |
| O=C1CCCN(O)C(=O)CCCNC(=O)CCCN(O)C(=O)CCCNC(=O)CCCN(O)C(=O)CCCN1 [H3L1, 1,11,21-Trihydroxy-1,6,11,16,21,26-hexaazacyclotriacontane-2,7,12,17,22,27-hexaone] | 9.24 ^d | 8.31 ^d | 9.89 ^d | 19.13(1) ^d | 27.44(1) ^d | 9.89(1) ^d | – | – | – | – |
| N[C@H]1CCCCNC(=O)CCCN(O)C(=O)CCCNC(=O)CCCN(O)C(=O)CCCNC(=O)CCCN(O)C(=O)CCCNC(=O)CCCN(O)C(=O)CCCNC1=O [H4L2, (S)-43-Amino-6,16,26,36-tetrahydroxy-1,6,11,16,21,26,31,36,41-nonaazacycloheptatetracontane-2,7,12,17,22,27,32,37,42-nonaone] | 9.59 ^d | 8.94 ^d | 10.06 ^d | 19.65(1) ^d | 28.59(1) ^d | 10.06(1) ^d | > 11 | 8.18 ^d | 36.77(1) ^d | 8.5 orders of magnitude |
